Laboratory results published in ChEMBL document CHEMBL1122503 (J Med Chem, 1983).

Experiments:
[1] = test system: Nucleic Acid
[2] = test system: Nucleic Acid; remark: listed apart in the source
[3] = test system: L1210; assay: cells; conditions: Mus musculus, L1210, read-out: ID50
Description: Growth inhibition against cultured murine L1210 leukemia cells

[4] = physchem; conditions: 20% aqueous DMF
Description: pKa value determined spectrophotometrically in 20% aqueous DMF

Structure (SMILES) | Log K [1] | Log K [2] | IC50 [3] | pKa [4]
COc1cc(NS(C)(=O)=O)ccc1Nc1c2ccc([N+](=O)[O-])cc2nc2c(C(N)=O)cccc12 | 5.96 | 6.4 | 350 nM | 4.71
COc1cc(NS(C)(=O)=O)ccc1Nc1c2ccc(Cl)cc2nc2c(C(=O)NCC(N)=O)cccc12 | 6.06 | 6.83 | 890 nM | 5.5
COc1cc(NS(C)(=O)=O)ccc1Nc1c2ccc(C)cc2nc2c(C(=O)NCC(N)=O)cccc12 | 6 | 6.69 | 460 nM | 4.53
CNC(=O)c1cccc2c(Nc3ccc(NS(C)(=O)=O)cc3OC)c3ccc(C)cc3nc12 | 6.22 | 6.68 | 170 nM | 4.71
CNC(=O)c1cccc2c(Nc3ccc(NS(C)(=O)=O)cc3OC)c3ccccc3nc12 | 5.54 | 6.18 | 270 nM | –
COc1cc(NS(C)(=O)=O)ccc1Nc1c2ccc(C)cc2nc2c(C(N)=O)cccc12 | 6.4 | 6.3 | 200 nM | 4.71
COc1cc(NS(C)(=O)=O)ccc1Nc1c2ccccc2nc2c(C(=O)NCC(N)=O)cccc12 | 5.39 | 6.4 | 850 nM | –
COc1cc(NS(C)(=O)=O)ccc1Nc1c2ccccc2nc2ccccc12 | 5.57 | 5.65 | – | –
COc1cc(NS(C)(=O)=O)ccc1Nc1c2ccccc2nc2c(C(N)=O)cccc12 | 5.47 | 6.13 | 270 nM | –
COc1cc(NS(C)(=O)=O)ccc1Nc1c2ccc(Cl)cc2nc2c(C(N)=O)cccc12 | 6.33 | 6.58 | 520 nM | 5.68
CNC(=O)c1cccc2c(Nc3ccc(NS(C)(=O)=O)cc3OC)c3ccc([N+](=O)[O-])cc3nc12 | 5.71 | 6.65 | 303 nM | 4.71
CNC(=O)c1cccc2c(Nc3ccc(NS(C)(=O)=O)cc3OC)c3ccc(Cl)cc3nc12 | 6.29 | 6.65 | 217 nM | 5.68

Next, values leading:

Log K [1] | Log K [2] | IC50 [3] | pKa [4] | Structure (SMILES)
5.95 | 6.08 | 12 nM | – | COc1cc(NS(C)(=O)=O)ccc1Nc1c2ccccc2nc2cc(C)ccc12
6.38 | 6.82 | 68 nM | 4.82 | CNC(=O)c1cccc2c(Nc3ccc(NS(C)(=O)=O)cc3OC)c3ccc(OC)cc3nc12
6.35 | 6.2 | 50 nM | – | COc1cc(NS(C)(=O)=O)ccc1Nc1c2ccccc2nc2cc(I)ccc12
6.29 | 6.82 | 21 nM | – | CNC(=O)c1cccc2c(Nc3ccc(NS(C)(=O)=O)cc3OC)c3ccc(N)cc3nc12
5.65 | 6.13 | 110 nM | 5.52 | COc1cc(NS(C)(=O)=O)ccc1Nc1c2ccccc2nc2cc([N+](=O)[O-])ccc12
6.06 | 5.98 | 70 nM | – | COc1cc(NS(C)(=O)=O)ccc1Nc1c2ccccc2nc2cc(Cl)ccc12
6.21 | 6.13 | 5.5 nM | 9.5 | COc1cc(NS(C)(=O)=O)ccc1Nc1c2ccccc2nc2cc(N)ccc12
5.83 | 5.97 | 22 nM | – | COc1ccc2c(Nc3ccc(NS(C)(=O)=O)cc3OC)c3ccccc3nc2c1
6.29 | 6.12 | 50 nM | – | COc1cc(NS(C)(=O)=O)ccc1Nc1c2ccccc2nc2cc(Br)ccc12
